Data published in US5191079A, “Quinolinecarboxylic acid derivatives” (priority 1990, dated 1993).
Converted amounts (≈) assume the structure as drawn. Where two headings read alike, the source gives them in different places.

Assays:
Assay type in all cases: cell-based
[1] = system: Streptococcus pyogenes Cook; test: MIC, Experiment 1; conditions: S. pyogenes Cook, Gram +, agar with 5% defibrinated horse blood, read-out: Min. inhib. concentr. (MIC)
Description: (§1) The compounds of the present invention (B, E, G, H, M, N, O, P and Q) were each dissolved in dimethylsulfoxide to prepare a solution of 5000 μg/ml in concentration. The compounds of the present invention (I, J and K) and the known compound (Y) were each dissolved in sterilized distilled water to prepare a solution of 5000 μg/ml in concentration. Each solution was diluted with sterilized distilled water to prepare a standard solution with a concentration of each test compound: 1000 μg/ml. The test was carried out by a method as appointed by Japan Society of Chemotherapy [cf. Chemotherapy, 29, 76-79 (1981), TOKYO].
(§2) As to Streptococcus pneumoniae and Streptococcus pyogenes, Brain heart infusion broth (manufactured by DIFCO) was used as the medium for the preculture thereof, and a heart infusion agar medium containing 5% defibrinated horse blood (manufactured by Nissui Seiyaku K. K., Japan) was used as the medium for the measurement of minimum inhibitory concentration (MIC). As to other microorganisms, a sensitivity test broth (manufactured by Nissui Seiyaku K. K.) was used as the medium for the preculture thereof, and a sensitivity test agar medium (manufactured by Nissui Seiyaku K. K.) was used as the medium for the measurement of MIC.

[2] = system: Staphylococcus aureus FDA 209P JC-1; test: MIC, Experiment 1; conditions: FDA209P, S. aureus FDA 209P JC-1, Gram +, read-out: Min. inhib. concentr. (MIC)
Description: as §1, §2

[3] = system: Streptococcus pneumoniae IID 554; test: MIC, Experiment 1; conditions: IID554, S. pneumoniae IID 554, Gram +, agar with 5% defibrinated horse blood, read-out: Min. inhib. concentr. (MIC)
Description: as §1, §2

[4] = system: Staphylococcus aureus Terajima (IID 670); test: MIC, Experiment 1; conditions: IID670, S. aureus Terajima (IID 670), Gram +, read-out: Min. inhib. concentr. (MIC)
Description: as §1, §2

Enterobacter cloacae 963 = test: MIC, Experiment 1; conditions: E. cloacae 963, Gram -, read-out: Min. inhib. concentr. (MIC)
Description: as §1, §2

[5] = system: Streptococcus pneumoniae IID 552; test: MIC, Experiment 1; conditions: IID552, S. pneumoniae IID 552, Gram +, agar with 5% defibrinated horse blood, read-out: Min. inhib. concentr. (MIC)
Description: as §1, §2

[6] = system: Staphylococcus aureus FDA 243; test: MIC, Experiment 1; conditions: FDA243, S. aureus FDA 243, Gram +, read-out: Min. inhib. concentr. (MIC)
Description: as §1, §2

[7] = system: Klebsiella pneumoniae PCI-602; test: MIC, Experiment 1; conditions: PCI602, K. pneumoniae PCI-602, Gram -, read-out: Min. inhib. concentr. (MIC)
Description: as §1, §2

[8] = system: Streptococcus pyogenes Su; test: MIC, Experiment 1; conditions: S. pyogenes Su, Gram +, agar with 5% defibrinated horse blood, read-out: Min. inhib. concentr. (MIC)
Description: as §1, §2

[9] = system: Staphylococcus aureus ATCC 9144; test: MIC, Experiment 1; conditions: ATCC9144, S. aureus ATCC 9144, Gram +, read-out: Min. inhib. concentr. (MIC)
Description: as §1, §2

[10] = system: Staphylococcus aureus Cowan I (IID 975); test: MIC, Experiment 1; conditions: IID975, S. aureus Cowan I (IID 975), Gram +, read-out: Min. inhib. concentr. (MIC)
Description: as §1, §2

[11] = system: Acinetobacter calcoaceticus Ac 54; test: MIC, Experiment 1; conditions: AC54, A. calcoaceticus Ac 54, Gram -, read-out: Min. inhib. concentr. (MIC)
Description: as §1, §2

[12] = system: Staphylococcus aureus MS-353; test: MIC, Experiment 1; conditions: MS353, S. aureus MS-353, Gram +, read-out: Min. inhib. concentr. (MIC)
Description: as §1, §2

[13] = system: Pseudomonas aeruginosa NCTC 10490; test: MIC, Experiment 1; conditions: NCTC10490, P. aeruginosa NCTC 10490, Gram -, read-out: Min. inhib. concentr. (MIC)
Description: as §1, §2

[14] = system: Micrococcus luteus ATCC 9341; test: MIC, Experiment 1; conditions: ATCC9341, M. luteus ATCC 9341, Gram +, read-out: Min. inhib. concentr. (MIC)
Description: as §1, §2

[15] = system: Proteus mirabilis IFO 3849; test: MIC, Experiment 1; conditions: IFO3849, P. mirabilis IFO 3849, Gram -, read-out: Min. inhib. concentr. (MIC)
Description: as §1, §2

[16] = system: Streptococcus pyogenes Sv; test: MIC, Experiment 1; conditions: S. pyogenes Sv, Gram +, agar with 5% defibrinated horse blood, read-out: Min. inhib. concentr. (MIC)
Description: as §1, §2

[17] = system: Bacillus subtilis ATCC 6633; test: MIC, Experiment 1; conditions: ATCC6633, B. subtilis ATCC 6633, Gram +, read-out: Min. inhib. concentr. (MIC)
Description: as §1, §2

[18] = system: clinically isolated Enterococcus faecalis; test: In vitro antibacterial activity against clinical isolates, Experiment 2; conditions: 25 clinical strains E. faecalis; for MIC50: 50% of strains, read-out: MIC50; for MIC90: 90% of strains, read-out: MIC90
Description: (§3) The above solutions were then diluted with sterilized distilled water to prepare a standard solution with a concentration of the test compound: 1000 μg/ml each.
(§4) For the preculture of each microorganism, there was used as the medium a sensitivity test broth (manufactured by Nissui Seiyaku K. K., Japan), and for the measurement of MIC, there was used a sensitivity test agar medium (manufactured by Nissui Seiyaku K. K.).
(§5) The clinically isolates used above were isolated from Nov. 1988 to Jun. 1989 and were obtained from Research Section, Tokyo Clinical Research Center.

[19] = system: clinically isolated Staphylococcus epidermidis; test: as above; conditions: Staphylococcus epidermidis; for MIC90: 90% of strains, read-out: MIC90
Description: as §3, §4, §5

[20] = system: clinically isolated Staphylococcus aureus; test: as above; conditions: for MIC / MIC50: 25 clinical strains S. aureus incl. 16 methicillin resistant; for MIC50: 50% of strains, read-out: MIC50
Description: as §3, §4, §5

[21] = system: clinically isolated Enterococcus faecium; test: as above; conditions: for MIC: 25 clinical strains E. faecium
Description: as §3, §4, §5

[22] = 25 clinical strains S. epidermidis

Row | SMILES | MIC [1] [µg/mL] | MIC [2] [µg/mL] | MIC [3] [µg/mL] | MIC [4] [µg/mL] | MIC (Enterobacter cloacae 963) [µg/mL] | MIC [5] [µg/mL] | MIC [6] [µg/mL] | MIC [7] [µg/mL] | MIC [8] [µg/mL] | MIC [9] [µg/mL] | MIC [10] [µg/mL] | MIC [11] [µg/mL] | MIC [12] [µg/mL] | MIC [13] [µg/mL] | MIC [14] [µg/mL] | MIC [15] [µg/mL] | MIC [16] [µg/mL] | MIC [17] [µg/mL] | MIC [18] [µg/mL] | MIC50 [18] [µg/mL] | further results
1 | COC[C@@H]1CN(c2c(F)cc3c(=O)c(C(=O)O)c4scc5n4c3c2N(C)C5)CCO1 [Compound (O), 9,1-(Methylimino)methano-7-fluoro-8-[(2S)-2-methoxymethylmorpholino)-5-oxo-5H-thiazolo[3,2-a]quinoline-4-carboxylic acid] | 0.05 (≈ 0.115 µM) | 0.025 (≈ 0.0577 µM) | 0.05 (≈ 0.115 µM) | 0.025 (≈ 0.0577 µM) | 0.78 (≈ 1.8 µM) | 0.05 (≈ 0.115 µM) | ≤ 0.006 | 0.013 (≈ 0.03 µM) | 0.05 (≈ 0.115 µM) | 0.025 (≈ 0.0577 µM) | ≤ 0.006 | 0.013 (≈ 0.03 µM) | 0.013 (≈ 0.03 µM) | 0.78 (≈ 1.8 µM) | 0.1 (≈ 0.231 µM) | 0.78 (≈ 1.8 µM) | 0.05 (≈ 0.115 µM) | 0.013 (≈ 0.03 µM) | 0.05 to 3.13 (≈ 0.115 to 7.22 µM) | 0.2 (≈ 0.461 µM) | MIC90 [18]: 3.13 µg/mL (≈ 7.22 µM); MIC [19, 22]: 0.006 to 0.78 µg/mL (≈ 0.0138 to 1.8 µM); MIC50 ([19]; 25 clinical strains S. epidermidis, 50% of strains, read-out: MIC50): 0.05 µg/mL (≈ 0.115 µM); MIC90 [19, 22]: 0.39 µg/mL (≈ 0.9 µM); MIC90 [20]: 0.78 µg/mL (≈ 1.8 µM); MIC [20]: 0.006 to 0.78 µg/mL (≈ 0.0138 to 1.8 µM); MIC50 [20]: 0.013 µg/mL (≈ 0.03 µM); MIC50 [21]: 3.13 µg/mL (≈ 7.22 µM); MIC90 [21]: 6.25 µg/mL (≈ 14.4 µM); MIC [21]: 0.1 to 12.5 µg/mL (≈ 0.231 to 28.8 µM)
2 | CN1Cc2csc3c(C(=O)O)c(=O)c4cc(F)c(N5CCO[C@@H](CO)C5)c1c4n23 [Compound (N), 9,1-(Methylimino)methano-7-fluoro-8-[(2R)-2-hydroxymethylmorpholino]-5-oxo-5H-thiazolo[3,2-a]quinoline-4-caboxylic acid] | 0.025 (≈ 0.0596 µM) | 0.013 (≈ 0.031 µM) | 0.05 (≈ 0.119 µM) | 0.025 (≈ 0.0596 µM) | 0.39 (≈ 0.93 µM) | 0.025 (≈ 0.0596 µM) | ≤ 0.006 | ≤ 0.006 | 0.025 (≈ 0.0596 µM) | ≤ 0.006 | 0.013 (≈ 0.031 µM) | ≤ 0.006 | 0.025 (≈ 0.0596 µM) | 0.39 (≈ 0.93 µM) | 0.1 (≈ 0.238 µM) | 0.39 (≈ 0.93 µM) | 0.05 (≈ 0.119 µM) | ≤ 0.006 | 0.05 to 3.13 (≈ 0.119 to 7.46 µM) | 0.2 (≈ 0.477 µM) | MIC90 [18]: 3.13 µg/mL (≈ 7.46 µM); MIC50 [19]: 0.025 µg/mL (≈ 0.0596 µM); MIC [19, 22]: 0.006 to 0.78 µg/mL (≈ 0.0143 to 1.86 µM); MIC90 [19, 22]: 0.39 µg/mL (≈ 0.93 µM); MIC90 [20]: 0.78 µg/mL (≈ 1.86 µM); MIC [20]: 0.006 to 0.78 µg/mL (≈ 0.0143 to 1.86 µM); MIC50 [20]: 0.013 µg/mL (≈ 0.031 µM); MIC50 [21]: 1.56 µg/mL (≈ 3.72 µM); MIC90 [21]: 6.25 µg/mL (≈ 14.9 µM); MIC [21]: 0.1 to 25 µg/mL (≈ 0.238 to 59.6 µM)
